Assay results published in patent US10316017B2, “COT modulators and methods of use thereof” (Gilead Sciences, Inc., priority 2015, dated 2019).

Molecular target: T1, human Cot catalytic domain (30-397 amino acids) (Homo sapiens, UniProt P41279)
T1 construct: Purified recombinant human Cot catalytic domain (30-397 amino acids) was purchased from Cama Biosciences; purchased Cama Biosciences (so in the source)
Experiment: High Throughput Cot Biochemical Assay (KinEASE TR-FRET)
Conditions: Cot KinEASE TR-FRET, 400 μM ATP; read-out: IC50 HTRF
Procedure: Example 61: High Throughput Cot Biochemical Assay
In this assay, Cot-catalyzes the phosphorylation of a XL665-labeled peptide substrate. Europium conjugated phospho-tyrosine specific antibody binds the resulting phosphorylated peptide. […] Purified recombinant human Cot catalytic domain (30-397 amino acids) was purchased from Cama Biosciences. […] The standard 5 μL reaction mixture contained 400 μM ATP, 1 μM STK3 peptide, 5 nM of Cot in reaction buffer (10 mM MOPS, pH 7.0, 0.02% NaN3, 0.5 mg/mL BSA, 10 mM MgOAc, 1 mM DTT, 0.025% NP-40, 1.5% glycerol) and 0.1% DMSO.

T1 sequence (P41279 30-397): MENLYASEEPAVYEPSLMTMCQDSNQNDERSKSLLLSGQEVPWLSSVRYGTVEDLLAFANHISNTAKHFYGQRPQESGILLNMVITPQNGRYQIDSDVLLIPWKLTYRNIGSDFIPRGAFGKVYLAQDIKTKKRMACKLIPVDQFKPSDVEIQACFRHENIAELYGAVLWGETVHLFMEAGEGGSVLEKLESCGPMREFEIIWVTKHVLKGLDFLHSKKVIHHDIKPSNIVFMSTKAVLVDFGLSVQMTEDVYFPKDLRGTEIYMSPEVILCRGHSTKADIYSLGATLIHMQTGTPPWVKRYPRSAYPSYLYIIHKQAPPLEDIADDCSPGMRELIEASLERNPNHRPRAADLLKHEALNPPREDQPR

Q: `N#Cc1cnc2c(Cl)cc(N[C@@H](c3ccc(F)cc3)c3cn(C4CCN(CC(F)F)CC4)nn3)cc2c1Nc1ccc(F)c(Cl)c1` [Example 823, (S)-8-chloro-4-((3-chloro-4-fluorophenyl)amino)-6-(((1-(1-(2,2-difluoroethyl)piperidin-4-yl)-1H-1,2,3-triazol-4-yl)(4-fluorophenyl)methyl)amino) quinoline-3-carbonitrile] was tested. Which IC50 did it give?
A: 97 nM

Q: Which IC50 does the source give for `CN1CCC(n2cc([C@@H](Nc3cc(Cl)c4ncc(C#N)c(Nc5ccc(F)c(Cl)c5)c4c3)c3ccc(F)cc3)nn2)CC1` [Example 826, (S)-8-chloro-4-((3-chloro-4-fluorophenyl)amino)-6-(((4-fluorophenyl)(1-(1-methylpiperidin-4-yl)-1H-1,2,3-triazol-4-yl)methyl)amino)quinoline-3-carbonitrile] here?
A: 6 nM

Q: With `CCN1CCC(n2cc(C(Nc3ccc4ncc(C#N)c(Nc5ccc(F)c(Cl)c5)c4c3)c3ccc(F)cc3)nn2)CC1` (stereo not drawn) [Example 827, 4-((3-chloro-4-fluorophenyl)amino)-6-(((1-(1-ethylpiperidin-4-yl)-1H-1,2,3-triazol-4-yl)(4-fluorophenyl)methyl)amino) quinoline-3-carbonitrile] as the compound, how does the IC50 read?
A: 34 nM

Q: `N#Cc1cnc2c(Cl)cc(N[C@@H](c3ccc(F)cc3)c3cn(C4CN5CCC4CC5)nn3)cc2c1Nc1ccc(F)c(Cl)c1` (stereo partly drawn) [Example 829, 8-chloro-4-((3-chloro-4-fluorophenyl)amino)-6-(((1S)-(4-fluorophenyl)(1-(quinuclidin-3-yl)-1H-1,2,3-triazol-4-yl)methyl)amino)quinoline-3-carbonitrile] was tested. Which IC50 did it give?
A: 6 nM

Q: Which IC50 does the source give for `CC(C)(C)OC(=O)N1CCC(n2cc([C@@H](Nc3cc(Cl)c4ncc(C#N)c(Nc5ccc(F)c(Cl)c5)c4c3)c3ccc(F)cc3)nn2)CC1` [Example 830, tert-butyl (S)-4-(4-(((8-chloro-4-((3-chloro-4-fluorophenyl)amino)-3-cyanoquinolin-6-yl)amino)(4-fluorophenyl)methyl)-1H-1,2,3-triazol-1-yl)piperidine-1-carboxylate] here?
A: 363 nM

Q: How did the IC50 turn out when `CCN1CCC(n2cc(C(Nc3ccc4ncc(C#N)c(Nc5ccc(F)c(Cl)c5)c4c3)c3ccc(F)cc3)nn2)CC1` (stereo not drawn) [Example 832, 4-((3-chloro-4-fluorophenyl)amino)-6-(((1-(1-ethylpiperidin-4-yl)-1H-1,2,3-triazol-4-yl)(4-fluorophenyl)methyl)amino) quinoline-3-carbonitrile] was run?
A: 9 nM

Q: `CCN1CCC(n2cc(C(Nc3cc(Br)c4ncc(C#N)c(Nc5ccc(F)c(Cl)c5)c4c3)c3ccc(F)cc3)nn2)CC1` (stereo not drawn) [Example 833, 8-bromo-4-((3-chloro-4-fluorophenyl)amino)-6-(((1-(1-ethylpiperidin-4-yl)-1H-1,2,3-triazol-4-yl)(4-fluorophenyl)methyl)amino) quinoline-3-carbonitrile] was tested. Which IC50 did it give?
A: 7 nM

Q: Which IC50 does the source give for `N#Cc1cnc2ccc(NC(c3ccc(F)cc3)c3cn(C4CCN(C(=O)OCc5ccccc5)CC4)nn3)cc2c1Nc1ccc(F)c(Cl)c1` (stereo not drawn) [Example 834, benzyl 4-(4-(((4-((3-chloro-4-fluorophenyl)amino)-3-cyanoquinolin-6-yl)amino)(4-fluorophenyl)methyl)-1H-1,2,3-triazol-1-yl)piperidine-1-carboxylate] here?
A: 756 nM

Q: For `CCN1CCC(n2cc(C(Nc3cc(Cl)c4ncc(C#N)c(Nc5ccc(F)c(Cl)c5)c4c3)c3ccc(F)cc3)nn2)CC1(C)C` (stereo not drawn) [Example 838, 8-chloro-4-((3-chloro-4-fluorophenyl)amino)-6-(((1-(1-ethyl-2,2-dimethylpiperidin-4-yl)-1H-1,2,3-triazol-4-yl)(4-fluorophenyl)methyl)amino) quinoline-3-carbonitrile], which IC50 is on record?
A: 32 nM

Q: With `CC1(C)CC(n2cc(C(Nc3cc(Cl)c4ncc(C#N)c(Nc5ccc(F)c(Cl)c5)c4c3)c3ccc(F)cc3)nn2)CCN1` (stereo not drawn) [Example 839, 8-chloro-4-((3-chloro-4-fluorophenyl)amino)-6-(((1-(2,2-dimethylpiperidin-4-yl)-1H-1,2,3-triazol-4-yl)(4-fluorophenyl)methyl)amino) quinoline-3-carbonitrile] as the compound, how does the IC50 read?
A: 24 nM

Q: Which IC50 does the source give for `CC1(C)CNCCC1n1cc(C(Nc2cc(Cl)c3ncc(C#N)c(Nc4ccc(F)c(Cl)c4)c3c2)c2ccc(F)cc2)nn1` (stereo not drawn) [Example 840, 8-chloro-4-((3-chloro-4-fluorophenyl)amino)-6-(((1-(3,3-dimethylpiperidin-4-yl)-1H-1,2,3-triazol-4-yl)(4-fluorophenyl)methyl)amino) quinoline-3-carbonitrile] here?
A: 84 nM

Q: `N#Cc1cnc2c(Cl)cc(NC(c3ccc(F)cc3)c3cn(C4CCOCC4)nn3)cc2c1Nc1ccc(F)c(Cl)c1` (stereo not drawn) [Example 843, 8-chloro-4-((3-chloro-4-fluorophenyl)amino)-6-(((4-fluorophenyl)(1-(tetrahydro-2H-pyran-4-yl)-1H-1,2,3-triazol-4-yl)methyl)amino)quinoline-3-carbonitrile] was tested. Which IC50 did it give?
A: 58 nM

Q: Which IC50 does the source give for `CC(=O)N1CCC(n2cc(C(Nc3cc(Cl)c4ncc(C#N)c(Nc5ccc(F)c(Cl)c5)c4c3)c3ccc(F)cc3)nn2)CC1` (stereo not drawn) [Example 844, 6-(((1-(1-acetylpiperidin-4-yl)-1H-1,2,3-triazol-4-yl)(4-fluorophenyl)methyl)amino)-8-chloro-4-((3-chloro-4-fluorophenyl)amino)quinoline-3-carbonitrile] here?
A: 48 nM

Q: For `CS(=O)(=O)N1CCC(n2cc(C(Nc3cc(Cl)c4ncc(C#N)c(Nc5ccc(F)c(Cl)c5)c4c3)c3ccc(F)cc3)nn2)CC1` (stereo not drawn) [Example 845, 8-chloro-4-((3-chloro-4-fluorophenyl)amino)-6-(((4-fluorophenyl)(1-(1-(methylsulfonyl)piperidin-4-yl)-1H-1,2,3-triazol-4-yl)methyl)amino)quinoline-3-carbonitrile], which IC50 is on record?
A: 99 nM

Q: Which IC50 does the source give for `Cn1ccc(C(Nc2cc(Cl)c3ncc(C#N)c(Nc4ccc(F)c(Cl)c4)c3c2)c2ccc(F)cc2)n1` (stereo not drawn) [Example 846, 8-chloro-4-((3-chloro-4-fluorophenyl)amino)-6-(((4-fluorophenyl)(1-methy-1-1H-pyrazol-3-yl)methyl)amino)quinoline-3-carbonitrile] here?
A: > 10000 nM

Q: Which IC50 does the source give for `N#Cc1cnc2c(Cl)cc(N[C@H](c3ccc(F)cc3)c3cn(C4CCNCC4)nn3)cc2c1Nc1ccc(F)c(Cl)c1` [Example 850, (R)-8-chloro-4-((3-chloro-4-fluorophenyl)amino)-6-(((4-fluorophenyl)(1-(piperidin-4-yl)-1H-1,2,3-triazol-4-yl)methyl)amino)quinoline-3-carbonitrile] here?
A: 926 nM

Q: How did the IC50 turn out when `N#Cc1cnc2c(Cl)cc(N[C@@H](c3ccc(F)cc3)c3cn(C4CCNCC4)nn3)cc2c1Nc1ccc(F)c(Cl)c1` [Example 851, (S)-8-chloro-4-((3-chloro-4-fluorophenyl)amino)-6-(((4-fluorophenyl)(1-(piperidin-4-yl)-1H-1,2,3-triazol-4-yl)methyl)amino)quinoline-3-carbonitrile] was run?
A: 7 nM

Q: `Cn1cc(C(Nc2cc(Cl)c3ncc(C#N)c(Nc4ccc(F)c(Cl)c4)c3c2)c2cccc(CN3CCCC3)c2)nn1` (stereo not drawn) [Example 852, 8-chloro-4-((3-chloro-4-fluorophenyl)amino)-6-(((1-methyl-1H-1,2,3-triazol-4-yl)(3-(pyrrolidin-1-ylmethyl)phenyl)methyl)amino)quinoline-3-carbonitrile] was tested. Which IC50 did it give?
A: 22 nM

Q: For `N#Cc1cnc2c(Cl)cc(NC(c3ccc(F)cc3)c3cn(C4CCN(C(=O)OCc5ccccc5)CC4)nn3)cc2c1Nc1ccc(F)c(Cl)c1` (stereo not drawn) [Example 855, benzyl 4-(4-(((8-chloro-4-((3-chloro-4-fluorophenyl)amino)-3-cyanoquinolin-6-yl)amino)(4-fluorophenyl)methyl)-1H-1,2,3-triazol-1-yl)piperidine-1-carboxylate], which IC50 is on record?
A: 2400 nM

Q: Which IC50 does the source give for `CCN1CCC(n2cc([C@H](Nc3cc(Cl)c4ncc(C#N)c(Nc5ccc(F)c(Cl)c5)c4c3)c3ccc(Cl)cc3)nn2)CC1` [Example 856, (R)-8-chloro-4-((3-chloro-4-fluorophenyl)amino)-6-(((4-chlorophenyl)(1-(1-ethylpiperidin-4-yl)-1H-1,2,3-triazol-4-yl)methyl)amino)quinoline-3-carbonitrile] here?
A: 860 nM

Q: Which IC50 does the source give for `N#Cc1cnc2c(Cl)cc(N[C@H](c3ccc(Cl)cc3)c3cn(C4CCNCC4)nn3)cc2c1Nc1ccc(F)c(Cl)c1` [Example 857, (R)-8-chloro-4-((3-chloro-4-fluorophenyl)amino)-6-(((4-chlorophenyl)(1-(piperidin-4-yl)-1H-1,2,3-triazol-4-yl)methyl)amino)quinoline-3-carbonitrile] here?
A: 1340 nM

Q: How did the IC50 turn out when `N#Cc1cnc2c(Cl)cc(NC(c3ccc(F)cc3)c3cccnc3)cc2c1Nc1ccc(F)c(Cl)c1` (stereo not drawn) [Example 862, 8-chloro-4-((3-chloro-4-fluorophenyl)amino)-6-(((4-fluorophenyl)(pyridin-3-yl)methyl)amino)quinoline-3-carbonitrile] was run?
A: 3960 nM

Q: Which IC50 does the source give for `N#Cc1cnc2c(Cl)cc(NC(c3ccc(F)cc3)c3cn([C@@H]4CCNC4)nn3)cc2c1Nc1ccc(F)c(Cl)c1` (stereo partly drawn) [Example 864, 8-chloro-4-((3-chloro-4-fluorophenyl)amino)-6-(((4-fluorophenyl)(1-((R)-pyrrolidin-3-yl)-1H-1,2,3-triazol-4-yl)methyl)amino)quinoline-3-carbonitrile] here?
A: 22 nM

Q: `CCN1CC[C@@H](n2cc(C(Nc3cc(Cl)c4ncc(C#N)c(Nc5ccc(F)c(Cl)c5)c4c3)c3ccc(F)cc3)nn2)C1` (stereo partly drawn) [Example 865, 8-chloro-4-((3-chloro-4-fluorophenyl)amino)-6-(((1-((R)-1-ethylpyrrolidin-3-yl)-1H-1,2,3-triazol-4-yl)(4-fluorophenyl)methyl)amino) quinoline-3-carbonitrile] was tested. Which IC50 did it give?
A: 46 nM
